Source: ChEMBL document CHEMBL3044845, “Synthesis and biological activity studies of furan derivatives” (2010)
The source made the active and inactive calls. The calls are words filed in the database; no cut-off is given here.

Tests used:
Pseudomonas aeruginosa [1] = test: Antibacterial activity against Pseudomonas aeruginosa ATCC […] at 5 mg/ml after 24 hr by disk diffusion method; type: functional; settings: for zone of inhibition at 5000 µg/mL: read-out: DIZ
Priestia megaterium [2] = test: Antibacterial activity against Bacillus megaterium ATCC 6633 at 5 mg/ml after 24 hr by disk diffusion method; type: functional
Bacillus subtilis [3] = test: Antibacterial activity against Bacillus subtilis RSKK 244 at 5 mg/ml after 24 hr by disk diffusion method; type: functional; settings: for zone of inhibition at 5000 µg/mL: RSKK 244, 24 h, read-out: DIZ
Listeria monocytogenes [4] = test: Antibacterial activity against Listeria monocytogenes ATCC 7644 at 5 mg/ml after 24 hr by disc diffusion method; type: functional; settings: for zone of inhibition at 5000 µg/mL: ATCC 7644, 24 h, read-out: DIZ
Micrococcus luteus [5] = test: Antibacterial activity against Micrococcus luteus NRRLB 4375 at 5 mg/ml after 24 hr by disk diffusion method; type: functional; settings: for zone of inhibition at 5000 µg/mL: NRRLB 4375, 24 h, read-out: DIZ
Salmonella enteritidis [6] = test: Antibacterial activity against Salmonella enterica subsp. enterica serovar Enteritidis ATCC 1376 at 5 mg/ml after 24 hr by disk diffusion method; type: functional; settings: for zone of inhibition at 5000 µg/mL: ATCC 1376, 24 h, read-out: DIZ
Staphylococcus aureus [7] = test: Antibacterial activity against Staphylococcus aureus ATCC 25923 at 5 mg/ml after 24 hr by disk diffusion method; type: functional; settings: ATCC 25923, 24 h, read-out: DIZ
Escherichia coli [8] = test: Antibacterial activity against Escherichia coli ATCC […] at 5 mg/ml after 24 hr by disk diffusion method; type: functional; settings: read-out: DIZ
Escherichia coli [9] = test: Antibacterial activity against Escherichia coli ATCC […] after 24 hr by disk diffusion method; type: functional
Micrococcus luteus [10] = test: Antibacterial activity against Micrococcus luteus NRRLB 4375 after 24 hr by disk diffusion method; type: functional
Salmonella enteritidis [11] = test: Antibacterial activity against Salmonella enterica subsp. enterica serovar Enteritidis ATCC 1376 after 24 hr by disk diffusion method; type: functional, organism-based
Pseudomonas aeruginosa [12] = test: Antibacterial activity against Pseudomonas aeruginosa ATCC […] after 24 hr by disk diffusion method; type: functional, organism-based
Listeria monocytogenes [13] = test: Antibacterial activity against Listeria monocytogenes ATCC 7644 after 24 hr by disk diffusion method; type: functional, organism-based
Bacillus subtilis [14] = test: Antibacterial activity against Bacillus subtilis RSKK 244 after 24 hr by disk diffusion method; type: functional
Staphylococcus aureus [15] = test: Antibacterial activity against Staphylococcus aureus ATCC 25923 after 24 hr by disk diffusion method; type: functional
Priestia megaterium [16] = test: Antibacterial activity against Bacillus megaterium ATCC 6633 after 24 hr by disk diffusion method; type: functional

| Compound | diameter of the inhibition zone (DIZ) (Priestia megaterium [2]) | zone of inhibition at 5000 µg/mL (Staphylococcus aureus [7]) | zone of inhibition at 5000 µg/mL (Escherichia coli [8]) | zone of inhibition at 5000 µg/mL (Pseudomonas aeruginosa [1]) | zone of inhibition at 5000 µg/mL (Bacillus subtilis [3]) | zone of inhibition at 5000 µg/mL (Listeria monocytogenes [4]) | zone of inhibition at 5000 µg/mL (Micrococcus luteus [5]) | zone of inhibition at 5000 µg/mL (Salmonella enteritidis [6]) | diameter of the inhibition zone (DIZ) (Micrococcus luteus [10]) | further results |
| --- | --- | --- | --- | --- | --- | --- | --- | --- | --- | --- |
| CCC1C(C#N)=C(c2cccs2)OC1(c1ccccc1)c1ccccc1 (stereo not given) | inactive | 8 mm | 10 mm |  |  |  |  |  |  | diameter of the inhibition zone (DIZ) (Pseudomonas aeruginosa [1]): inactive; diameter of the inhibition zone (DIZ) (Bacillus subtilis [3]): inactive; diameter of the inhibition zone (DIZ) (Listeria monocytogenes [4]): inactive; diameter of the inhibition zone (DIZ) (Micrococcus luteus [5]): inactive; diameter of the inhibition zone (DIZ) (Salmonella enteritidis [6]): inactive |
| CCCC1(c2ccccc2)OC(c2ccccc2)=C(C#N)C1c1ccccc1 (stereo not given) | inactive | 14 mm | 12 mm | 10 mm | 10 mm | 18 mm | 13 mm | 16 mm |  |  |
| CC1(C)S[C@@H]2[C@H](NC(=O)Cc3ccccc3)C(=O)N2[C@H]1C(=O)O [PENICILLIN G] |  |  |  |  |  |  |  |  | 31 mm | diameter of the inhibition zone (DIZ) (Escherichia coli [9]): 19 mm |
| CN(C)[C@@H]1C(O)=C(C(N)=O)C(=O)[C@@]2(O)C(O)=C3C(=O)c4c(O)cccc4[C@@](C)(O)[C@H]3C[C@@H]12 [TETRACYCLINE] |  |  |  |  |  |  |  |  | 9 mm |  |
| CCC1C(C#N)=C(c2ccco2)OC1(c1ccccc1)c1ccccc1 (stereo not given) |  | 10 mm | 13 mm | 12 mm | 11 mm | 16 mm | 14 mm | 10 mm |  | zone of inhibition at 5000 µg/mL (Priestia megaterium [2]; ATCC 6633, 24 h, read-out: DIZ): 10 mm |
| GENTAMICIN |  |  |  |  |  |  |  |  |  | inhibition zone (IZ) (Salmonella enteritidis [11]): 9 mm; inhibition zone (IZ) (Pseudomonas aeruginosa [12]): 16 mm; inhibition zone (IZ) (Listeria monocytogenes [13]): 10 mm |
| CCCC1(c2ccccc2)OC(c2cc3ccccc3o2)=C(C#N)C1c1ccccc1 (stereo not given) | inactive | 12 mm | 10 mm | 10 mm | 11 mm | 13 mm | 13 mm | 14 mm |  |  |
| CCC1C(C#N)=C(c2ccccc2)OC1(c1ccccc1)c1ccccc1 (stereo not given) | inactive | 13 mm | 11 mm | 12 mm | 11 mm | 11 mm | 13 mm | 13 mm |  |  |
| CC1(C)S[C@@H]2[C@H](NC(=O)[C@H](N)c3ccccc3)C(=O)N2[C@H]1C(=O)O [AMPICILLIN] |  |  |  |  |  |  |  |  | 28 mm | diameter of the inhibition zone (DIZ) (Bacillus subtilis [14]): 15 mm; diameter of the inhibition zone (DIZ) (Staphylococcus aureus [15]): 9 mm; diameter of the inhibition zone (DIZ) (Priestia megaterium [16]): 10 mm |
